Source: patent EP1113802B1, “ANTIVIRAL COMBINATIONS OF […] ADEFOVIR” (priority 1998, dated 2000)
Where two headings read alike, the source gives them in different places.

Key:
[1] = tested on: HBV; details: to the end of the second year of a two year study; cited from earlier work
[2] = tested on: WT HBV; assay: PMEA inhibition of HBV DNA production, HepG2 cells transiently transfected with HBV genome plasmid; assay type: cell-based; details: Hepatitis B virus, 168 h, WT construct, day 7, read-out: IC50 PMEA (95%Cl)
Protocol: (§1) The human hepatobtastoma cell line (Hep-G2-2.2.15) which constitutively produces infectious HBV was seeded into 96 well microtiter plates at a density of 5 x 10^3 cells per well. These cells were treated with a combination of lamivudine and PMEA on triplicate plates. Culture media containing drugs was replenished every other day for 9 days, at which time supernatants were collected and analyzed for HBV content. The lamivudine/PMEA combination was tested twice in triplicate in matrix fashion. […] Data were normalised to values obtained with non-drug treated cells, and expressed as a percent of control for analysis. […] Briefly, HBV detection was performed by "capturing" virus from supernatants on Anti-HBsAg coated plates, washing, denaturing to release HBV DNA, performing PCR with biotinylated primers, streptavidin capture of biotinylated PCR products with concomitant probe hybridization, addition of substrate, and reading optical densities of the colorimetric reaction. Dilutions of a standardized HBV-containing supernatant were included on every plate, and HBV DNA concentrations of test wells were calculated from this HBV standard curve. The useful range of detection is at least .045 to 45 fg of HBV DNA, where 30 copies of the genome can be reliably detected. […]

[3] = tested on: HBV L528M/ M552V; assay: as above; assay type: cell-based, hepatitis B virus
Protocol: (§2) The human hepatobtastoma cell line (Hep-G2-2.2.15) which constitutively produces infectious HBV was seeded into 96 well microtiter plates at a density of 5 x 10^3 cells per well. These cells were treated with a combination of lamivudine and PMEA on triplicate plates. Culture media containing drugs was replenished every other day for 9 days, at which time supernatants were collected and analyzed for HBV content. The lamivudine/PMEA combination was tested twice in triplicate in matrix fashion. Experiment 1 utilised a lamivudine range of 100 nM to 0.14 nM (3-fold dilutions in columns), and PMEA, 9-[(R)-2-(phosphonomethoxy)ethyl]adenine (adefovir), at concentrations of 1 µM to 10 nM (3.16 fold dilutions in rows). Experiment 2 was performed with dilutions of Lamivudine ranging from 100nM to .045 nM (in 3-fold dilutions in columns), and a PMEA range of 5 µM to 0.16 nM (3.16 fold dilutions in rows). Both drugs were diluted in a separate 96 well microtiter plate, and subsequently transferred onto plates containing the cell monolayers. Cells are grown in 150 µl RPMI 1640 supplemented with 2 mM L-Glutamine and 10% fetal bovine serum. Prior to transfer of drug, 120 µl of media was removed from the cells, leaving 30 µl on the monolayers to prevent drying. 90 µl of fresh media without drug was added, followed by the addition of 30 µl of 5X drug dilutions. Lamivudine and PMEA were each tested on their respective plates individually at the same concentrations. Data were normalised to values obtained with non-drug treated cells, and expressed as a percent of control for analysis. The method used for detection of HBV has been previously described (Jansen RW, Johnson LC, Averett, DR. High-Capacity in vitro assessment of anti-hepatitis B virus compound selectivity by a virion-specific polymerase chain reaction assay. Antimicrob Agents Chem 1993; 37 (3): 441-447.). Briefly, HBV detection was performed by "capturing" virus from supernatants on Anti-HBsAg coated plates, washing, denaturing to release HBV DNA, performing PCR with biotinylated primers, streptavidin capture of biotinylated PCR products with concomitant probe hybridization, addition of substrate, and reading optical densities of the colorimetric reaction. Dilutions of a standardized HBV-containing supernatant were included on every plate, and HBV DNA concentrations of test wells were calculated from this HBV standard curve. The useful range of detection is at least .045 to 45 fg of HBV DNA, where 30 copies of the genome can be reliably detected. Samples were tested in conjunction with both positive (.448 fg/ul plasmid DNA) and negative (RPMI medium supplemented with 2 mM L-Glutamine and 10% Fetal calf serum) controls. The average IC50 and standard error of the IC50s for the triplicate plates were calculated using SAS nonlinear regression to fit data to the Hill equation for each concentration response curve. When only a single determination of an IC50 for a particular dose combination could be made, the average of the standard errors from adjacent concentrations was used to estimate the standard error. Fractional inhibitory concentrations (FIC50) were calculated for each combination and plotted using the isobologram representation (Berenbaum, M.C. (1985) The Expected Effect ofa Combination of Agents: the General Solution. J. Theor. Biol. 114, 413-431). To assess statistical significance of synergy or antagonism, an unpaired t-test was used to compare each sum of paired FIC50 values with the theoretical value of 1. P values less than 0.05 were considered statistically significant. Comparison of P values between experiments must be interpreted with great care, as the experiments utilized different test concentration ranges (or ranges useable by the isobologram method). In some cases not all concentrations tested could support calculation of an IC50, since response was inhibited to a greater extent than 50 percent of control for all doses. […]

[4] = tested on: HBV M552V; assay: as above; assay type: cell-based, hepatitis B virus
Protocol: as §2

[5] = tested on: HBV M552I; assay: as above; assay type: cell-based, hepatitis B virus
Protocol: as §2

[6] = tested on: HBV L528M; assay: as above; assay type: cell-based, hepatitis B virus
Protocol: as §2

[7] = tested on: WT HBV produced by the 2.2.15 cells; details: Heijtink et al. 1993, read-out: IC50 of PMEA, literature value using the same cell line; cited from earlier work
[8] = in vitro; assay type: cell-based; details: human; HepG2 cells; read-out: cytotoxic IC50
Protocol: The IC50 for PMEA was determined against wild type (WT) and lamivudine resistant HBV transiently expressed in a cell culture system as described below. HepG2 cells were transiently transfected with plasmid containing the HBV genome that had the wild type sequence or contained the following lamivudine resistant mutations in the reverse transcriptase gene; M552I, M552V, L528M, L528MM552V. […] HepG2 cells were seeded into 96-well Costar plates at 6300 cells per well in 150 µl of HepG2 media (Dulbecco's Modified Eagle Medium (DMEM), containing 10% fetal bovine serum) and were incubated overnight at 37°C. For each transfected well, 75 ng of plasmid DNA and 0.5 µl of lipofectamine (Gibco) were incubated together for 30 minutes at room temperature in 12.5 µl of OptiMem (Gibco) prior to addition of DNA/lipofectamine mixture to cells. Each well was rinsed with 150 µl of unsupplemented DMEM. […] HBV DNA levels were quantitated from media harvested from cells on day 7 using the methods described in Jansen RW, Johnson LC, Averett, DR. […] Cytotoxicity due to drug treatment was determined using the DNA stain Bisbenzimide (H33342 3HCl 4H2O; Calbiochem Company, La Jolla CA). […] Fluorescent values per well were determined with a Millipore Cytofluor 2350 fluorescent plate reader (excitation, 355 nm; emission, 460 nm; arbitrary units). […]

[9] = tested on: Human hepatitis B DNA polymerase which expresses lamivudine codons; details: Xiong et al. 1997, Abstract No. 1211; cited from earlier work
[10] = tested on: WT HBV produced by the 2.2.15 cells; assay: PMEA inhibition of HBV DNA production in 2.2.15 stable HBV-producer cells; assay type: cell-based; details: Hepatitis B virus, 168 h, HBV DNA in media on day 7, read-out: IC50 PMEA (95%Cl)
Protocol: as §1

Compound: Nc1ccn([C@@H]2CS[C@H](CO)O2)c(=O)n1 (relative stereo) [lamivudine, (2R,cis)-4-amino-1-(2-hydroxymethyl-1,3-oxathiolan-5-yl)-pyrimidin-2-one]
- patients maintaining undetectable levels of virus [1]: 52%

Compound: Nc1ncnc2c1ncn2CCOCP(=O)(O)O [PMEA, 9-[(R)-2-(phosphonomethoxy)ethyl]adenine]
- IC50 [2]: 530 nM
- IC50 ([3]; Hepatitis B virus, 168 h, L528M/ M552V construct, transfected HepG2 cells, day 7, read-out: IC50 PMEA (95%Cl)): 1300 nM
- x-fold change in IC50 ([3]; L528M/ M552V versus WT HBV): 2.5
- IC50 ([4]; Hepatitis B virus, 168 h, M552V construct, transfected HepG2 cells, day 7, read-out: IC50 PMEA (95%Cl)): 9.8 µM
- x-fold change in IC50 ([4]; M552V versus WT HBV): 18
- IC50 ([5]; Hepatitis B virus, 168 h, M552I construct, transfected HepG2 cells, day 7, read-out: IC50 PMEA (95%Cl)): 7.5 µM
- x-fold change in IC50 ([5]; M552I versus WT HBV): 14
- IC50 ([6]; Hepatitis B virus, 168 h, L528M construct, transfected HepG2 cells, day 7, read-out: IC50 PMEA (95%Cl)): 870 nM
- x-fold change in IC50 ([6]; L528M versus WT HBV): 1.6
- IC50 [7]: 700 nM
- IC50 [8]: 25 to 40 µM
- cross-resistance to PMEA [9]: lack of cross-resistance
- IC50 [10]: 430 nM
